One assay addresses T1, human Nav1.8 (Homo sapiens, UniProt Q9Y5Y9).
T1 construct: expressed in transfected cells; host or cells: HEK293 (HEK293-Nav1.8)
Put plainly: Nav1.8 sodium channels assay, QPatch 48 HTX electrophysiology in HEK293-Nav1.8 cells. The format is cell-based. The following applies: Table 1; HEK293-Nav1.8, QPatch 48 HTX, half inactivation state voltage protocol (V1/2); single run or average of two or more runs; read-out: Nav1.8 pIC50 (converted). On the procedure:
Human embryonic kidney […] cells (HEK293) expressing human Nav1.8, human Navβ1 and human TREK1 (HEK293-Nav1.8) were grown at 37° C., 5% CO2 in 150 cm^2 flasks. HEK293-Nav1.8 were passaged every 2-3 days when confluency reached 80-90% in to T175 cell culture flasks.
Pharmacological assessment of the invention was performed using HEK293-Nav1.8 in combination with an assay developed on the QPatch 48 HTX electrophysiological system. HEK293-Nav1.8 were prepared on the day of use by removing culture media, washing in DPBS, adding Accutase (2 ml to cover the surface, aspirate 1 ml then 1.5 min at 37° C.) followed by addition of CHO-SFM II to stop the enzyme digestion and in order to obtain a suspension of 3×10^6 cell/mL.
The invention was prepared in an extracellular solution of the following composition (in mM) NaCl 145, KCl 4, CaCl2 2, MgCl 2, HEPES 1, Glucose 10, pH 7.4 with NaOH Osmolality 300 mOsM/L. The intracellular solution was used of the following composition (in mM) CsF 115, CsCl 20, NaCl 5, EGTA 10, HEPES 10, Sucrose 20, pH 7.2 with CsOH Osmolality 310 mOsm/L.
Utilizing the voltage-clamp mode in the QPatch 48 HTX system a half inactivation state voltage protocol (V1/2) was used to determine pharmacological activity of the invention at Nav1.8 ion channels. A V1/2 protocol was utilized with the following voltage steps: a holding voltage of −100 mV was established followed by a 20 ms voltage step to 0 mV (P1), followed by an inactivating voltage step at −46 mV for 8 seconds, followed by a step to −100 mV for 20 ms, before a 20 ms step to 0 mV (P2) before returning to the holding voltage of −100 mV. This voltage protocol was repeated at a frequency of 0.07 Hz., current magnitude was quantified at the P2 step throughout the recording. Inhibition of the measured current amplitude with the invention was analyzed by fitting a 6-8 point dose-response curve allowing determination of the fifty percent inhibition concentration (IC50). Within the QPatch HTX software, P2 current was normalized according to measurements made at baseline after compound and after positive reference compound and fit to the following equation: […]
To assess current run-down over the course of the experiment vehicle-only wells were utilized and the normalized current with vehicle-only (n.IVEH) was determined. To correct the compound response for run-down, the currents were correct according the following formula: […]
Compounds of the invention are tested for activity against Nav1. 8 sodium channels in the above assay.
T1 sequence (Q9Y5Y9 whole entry): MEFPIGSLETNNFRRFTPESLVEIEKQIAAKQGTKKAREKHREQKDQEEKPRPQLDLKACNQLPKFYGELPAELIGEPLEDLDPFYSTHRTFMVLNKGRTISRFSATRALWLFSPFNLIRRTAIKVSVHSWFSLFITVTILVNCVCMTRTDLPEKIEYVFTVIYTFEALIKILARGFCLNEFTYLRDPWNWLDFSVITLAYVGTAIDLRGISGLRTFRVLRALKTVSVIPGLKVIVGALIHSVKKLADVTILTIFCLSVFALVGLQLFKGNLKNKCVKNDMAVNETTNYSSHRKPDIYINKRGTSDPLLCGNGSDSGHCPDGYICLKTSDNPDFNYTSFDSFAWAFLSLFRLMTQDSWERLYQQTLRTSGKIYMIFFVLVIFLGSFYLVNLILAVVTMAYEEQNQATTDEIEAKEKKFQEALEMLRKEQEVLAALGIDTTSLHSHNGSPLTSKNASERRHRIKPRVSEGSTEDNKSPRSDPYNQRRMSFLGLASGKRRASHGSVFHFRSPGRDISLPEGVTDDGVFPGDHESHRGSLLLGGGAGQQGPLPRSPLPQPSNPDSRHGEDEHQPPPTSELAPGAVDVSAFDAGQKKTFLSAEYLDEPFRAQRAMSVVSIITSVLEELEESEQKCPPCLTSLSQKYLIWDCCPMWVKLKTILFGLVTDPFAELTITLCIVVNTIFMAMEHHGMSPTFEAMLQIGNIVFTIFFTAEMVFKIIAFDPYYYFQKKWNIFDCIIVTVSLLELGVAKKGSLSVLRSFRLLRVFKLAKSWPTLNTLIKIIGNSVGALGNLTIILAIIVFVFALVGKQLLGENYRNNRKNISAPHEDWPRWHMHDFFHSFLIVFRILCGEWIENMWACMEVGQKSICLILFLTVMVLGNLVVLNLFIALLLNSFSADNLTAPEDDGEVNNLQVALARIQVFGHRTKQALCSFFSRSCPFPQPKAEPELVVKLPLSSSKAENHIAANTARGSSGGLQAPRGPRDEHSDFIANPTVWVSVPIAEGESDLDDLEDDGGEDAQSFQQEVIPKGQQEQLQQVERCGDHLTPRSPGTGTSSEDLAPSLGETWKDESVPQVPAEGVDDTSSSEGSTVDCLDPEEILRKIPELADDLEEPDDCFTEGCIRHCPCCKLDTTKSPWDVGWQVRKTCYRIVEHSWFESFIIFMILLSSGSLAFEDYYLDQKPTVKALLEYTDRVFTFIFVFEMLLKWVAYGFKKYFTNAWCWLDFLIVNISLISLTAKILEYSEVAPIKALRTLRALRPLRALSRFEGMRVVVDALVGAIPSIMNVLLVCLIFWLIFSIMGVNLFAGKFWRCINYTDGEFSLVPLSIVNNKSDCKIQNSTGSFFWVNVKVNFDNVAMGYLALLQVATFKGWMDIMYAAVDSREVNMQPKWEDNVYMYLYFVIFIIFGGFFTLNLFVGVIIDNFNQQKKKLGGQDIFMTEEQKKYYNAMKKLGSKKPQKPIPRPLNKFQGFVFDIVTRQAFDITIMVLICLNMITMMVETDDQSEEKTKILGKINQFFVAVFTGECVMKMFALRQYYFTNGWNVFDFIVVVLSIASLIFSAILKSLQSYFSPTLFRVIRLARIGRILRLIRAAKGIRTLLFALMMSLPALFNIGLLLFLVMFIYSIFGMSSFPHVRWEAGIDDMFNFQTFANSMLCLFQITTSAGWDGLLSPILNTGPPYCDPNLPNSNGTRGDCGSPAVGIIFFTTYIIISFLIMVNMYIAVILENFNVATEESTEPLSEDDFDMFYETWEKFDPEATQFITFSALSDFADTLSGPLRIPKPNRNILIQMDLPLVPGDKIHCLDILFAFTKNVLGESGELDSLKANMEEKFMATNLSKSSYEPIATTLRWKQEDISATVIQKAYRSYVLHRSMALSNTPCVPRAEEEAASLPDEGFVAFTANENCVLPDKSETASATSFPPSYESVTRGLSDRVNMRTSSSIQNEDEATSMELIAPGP
T1 sequence (Q07699 19-218 partner): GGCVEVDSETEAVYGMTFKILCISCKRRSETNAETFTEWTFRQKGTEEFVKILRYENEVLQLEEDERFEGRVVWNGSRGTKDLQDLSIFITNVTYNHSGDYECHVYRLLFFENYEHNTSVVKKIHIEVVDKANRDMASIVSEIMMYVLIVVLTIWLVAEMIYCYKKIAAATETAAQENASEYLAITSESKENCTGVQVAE
Regarding `O=C1c2ccc(C(F)(F)F)cc2N(c2ccc(F)cc2)CN1c1ccc(=O)[nH]c1` [drawing 262, 1-(4-fluorophenyl)-3-(6-oxo-1,6-dihydropyridin-3-yl)-7-(trifluoromethyl)-2,3-dihydroquinazolin-4(1H)-one], the IC50 is 398 nM.

Still in this assay, the particulars now being: Table 2; HEK293-Nav1.8, QPatch 48 HTX, half inactivation state voltage protocol (V1/2); single run or average of two or more runs; read-out: Nav1.8 pIC50 (converted).
Turning to `Cc1cc(F)ccc1N1CN(c2cc[nH]c(=O)c2C)C(=O)c2ccc(C(F)(F)F)cc21` [drawing 312, 1-(4-fluoro-2-methylphenyl)-3-(3-methyl-2-oxo-1,2-dihydropyridin-4-yl)-7-(trifluoromethyl)-2,3-dihydroquinazolin-4(1H)-one], the IC50 is 1260 nM.

The same assay, now with this note: at least one set of experimental runs; read-out: average pIC50 value against Nav1.8 (converted).
For `CCc1cc(F)ccc1N1CN(c2cc[n+]([O-])cc2C)C(=O)c2cc(Cl)c(C#N)cc21` [Example 247, 4-(6-chloro-7-cyano-1-(2-ethyl-4-fluorophenyl)-4-oxo-1,4-dihydroquinazolin-3(2H)-yl)-3-methylpyridine 1-oxide], the IC50 is at most 100 nM.
On to `Cc1cc(Cl)ccc1N1CN(c2ccc(=O)[nH]c2C)C(=O)c2cc(C(F)(F)F)cnc21` [Example 196, 1-(4-chloro-2-methylphenyl)-3-(2-methyl-6-oxo-1,6-dihydropyridin-3-yl)-6-(trifluoromethyl)-2,3-dihydropyrido[2,3-d]pyrimidin-4(1H)-one], for which the IC50 is 126 to 631 nM.
With `Cc1cc(F)ccc1N1CN(c2ccc(=O)[nH]c2C)C(=O)c2cc(C(F)(F)F)c(C#N)cc21` [Example 111, 1-(4-fluoro-2-methylphenyl)-3-(2-methyl-6-oxo-1,6-dihydropyridin-3-yl)-4-oxo-6-(trifluoromethyl)-1,2,3,4-tetrahydroquinazoline-7-carbonitrile], the IC50 was at most 100 nM.
For `Cc1cc(F)ccc1N1CN(c2ccc(=O)[nH]c2C)C(=O)c2ccccc21` [Example 52, 1-(4-fluoro-2-methylphenyl)-3-(2-methyl-6-oxo-1,6-dihydropyridin-3-yl)-2,3-dihydroquinazolin-4(1H)-one], the IC50 is at most 100 nM.
With `COc1cc(F)ccc1N1CN(c2ccc(=O)[nH]c2C)C(=O)c2cc(C(F)(F)F)ccc21` [Example 226, 1-(4-fluoro-2-methoxyphenyl)-3-(2-methyl-6-oxo-1,6-dihydropyridin-3-yl)-6-(trifluoromethyl)-2,3-dihydroquinazolin-4(1H)-one], the IC50 was at most 100 nM.
Consider `Cc1cc(F)ccc1N1CN(c2ccc(=O)[nH]c2C)C(=O)c2cc(F)c(OC(F)(F)F)cc21` [Example 129, 6-fluoro-1-(4-fluoro-2-methylphenyl)-3-(2-methyl-6-oxo-1,6-dihydropyridin-3-yl)-7-(trifluoromethoxy)-2,3-dihydroquinazolin-4(1H)-one], for which the IC50 was at most 100 nM.
Consider `O=C1c2ccc(C(F)(F)F)cc2N(Cc2ccc(F)cc2)CN1c1ccc(=O)[nH]c1` [Example 220, 1-(4-fluorobenzyl)-3-(6-oxo-1,6-dihydropyridin-3-yl)-7-(trifluoromethyl)-2,3-dihydroquinazolin-4(1H)-one], for which the IC50 is 794 to 7940 nM.
As for `Cc1ccc(N2CN(c3ccc(=O)[nH]c3C)C(=O)c3ccc(C(F)(F)F)cc32)c(C)c1` [Example 203, 1-(2,4-dimethylphenyl)-3-(2-methyl-6-oxo-1,6-dihydropyridin-3-yl)-7-(trifluoromethyl)-2,3-dihydroquinazolin-4(1H)-one], the IC50 was at most 100 nM.
In the case of `Cc1cnccc1N1CN(c2ccc(OC(F)(F)F)cc2C)c2cc(F)c(Cl)cc2C1=O` [Example 11, 6-chloro-7-fluoro-1-(2-methyl-4-(trifluoromethoxy)phenyl)-3-(3-methylpyridin-4-yl)-2,3-dihydroquinazolin-4(1H)-one], the IC50 was 126 to 631 nM.
For the compound `CCc1cc(F)ccc1N1CN(c2ccc(=O)[nH]c2)C(=O)c2ccc(C(F)(F)F)cc21` [Example 43, 1-(2-ethyl-4-fluorophenyl)-3-(6-oxo-1,6-dihydropyridin-3-yl)-7-(trifluoromethyl)-2,3-dihydroquinazolin-4(1H)-one], the IC50 is 126 to 631 nM.
Regarding `Cc1cc(F)ccc1N1CN(c2ccnn2C)C(=O)c2cc(C(F)(F)F)ccc21` [Example 4, 1-(4-fluoro-2-methylphenyl)-3-(1-methyl-1H-pyrazol-5-yl)-6-(trifluoromethyl)-2,3-dihydroquinazolin-4(1H)-one], the IC50 was 126 to 631 nM.
Still for that read-out and setting: the figure for `COc1cc(C)ccc1N1CN(c2ccc(=O)[nH]c2C)C(=O)c2cc(Cl)ccc21` [Example 134, 6-chloro-1-(2-methoxy-4-methylphenyl)-3-(2-methyl-6-oxo-1,6-dihydropyridin-3-yl)-2,3-dihydroquinazolin-4(1H)-one] is 126 to 631 nM; for `Cc1cc(F)ccc1N1CN(c2ccc(=O)[nH]c2C)C(=O)c2cc(F)c(C)nc21` [Example 71, 6-fluoro-1-(4-fluoro-2-methylphenyl)-7-methyl-3-(2-methyl-6-oxo-1,6-dihydropyridin-3-yl)-2,3-dihydropyrido[2,3-d]pyrimidin-4(1H)-one] it is 126 to 631 nM.
As to `Cc1cc(F)c(F)cc1N1CN(c2ccc(=O)[nH]c2C)C(=O)c2cc(C(F)(F)F)ccc21` [Example 113, 1-(4,5-difluoro-2-methylphenyl)-3-(2-methyl-6-oxo-1,6-dihydropyridin-3-yl)-6-(trifluoromethyl)-2,3-dihydroquinazolin-4(1H)-one], the IC50 is 126 to 631 nM.
On to `Cc1cc(F)ccc1N1CN(c2ccnc(C(N)=O)c2)C(=O)c2c1ccc(Cl)c2F` [Example 8, 4-(6-chloro-5-fluoro-1-(4-fluoro-2-methylphenyl)-4-oxo-1,4-dihydroquinazolin-3(2H)-yl)picolinamide], for which the IC50 is 794 to 7940 nM.
Consider `Cc1[nH]c(=O)ccc1N1CN([C@@H]2CCCC[C@H]2C)c2cc(C(F)(F)F)ccc2C1=O` [Example 280, 3-(2-Methyl-6-oxo-1,6-dihydropyridin-3-yl)-1-((1R,2R)-2-methylcyclohexyl)-7-(trifluoromethyl)-2,3-dihydroquinazolin-4(1H)-one], for which the IC50 is 126 to 631 nM.
In the case of `COc1cc(F)ccc1N1CN(c2ccc(=O)[nH]c2)C(=O)c2c1cccc2C(F)(F)F` [Example 223, 1-(4-fluoro-2-methoxyphenyl)-3-(6-oxo-1,6-dihydropyridin-3-yl)-5-(trifluoromethyl)-2,3-dihydroquinazolin-4(1H)-one], the IC50 was 794 to 7940 nM.
With `Cc1cc(F)ccc1N1CN(c2ccc(=O)[nH]c2C)C(=O)c2cc(F)c(C#N)cc21` [Example 242, 6-fluoro-1-(4-fluoro-2-methylphenyl)-3-(2-methyl-6-oxo-1,6-dihydropyridin-3-yl)-4-oxo-1,2,3,4-tetrahydroquin-azoline-7-carbonitrile], the IC50 was at most 100 nM.
On to `Cc1ccc2c(c1)C(=O)N(c1ccc(=O)[nH]c1C)CN2c1ccc(F)cc1C` [Example 51, 1-(4-f1uoro-2-methylphenyl)-6-methyl-3-(2-methyl-6-oxo-1,6-dihydropyridin-3-yl)-2,3-dihydroquinazolin-4(1H)-one], for which the IC50 is at most 100 nM.
For `Cc1cc2c(cc1F)C(=O)N(c1ccc(=O)[nH]c1C)CN2c1ccc(F)cc1C` [Example 85, 6-fluoro-1-(4-fluoro-2-methylphenyl)-7-methyl-3-(2-methyl-6-oxo-1,6-dihydropyridin-3-yl)-2,3-dihydroquinazolin-4(1H)-one], the IC50 is at most 100 nM.
Regarding `COc1cccc2c1C(=O)N(c1ccc(=O)[nH]c1C)CN2c1ccc(F)cc1C(C)C` [Example 236, 1-(4-fluoro-2-isopropylphenyl)-5-methoxy-3-(2-methyl-6-oxo-1,6-dihydropyridin-3-yl)-2,3-dihydroquinazolin-4(1H)-one], the IC50 is 794 to 7940 nM.
Consider `Cc1cc(F)ccc1N1CN(c2ccc(=O)[nH]c2C)C(=O)c2c1ccc(Cl)c2C` [Example 234, 6-chloro-1-(4-fluoro-2-methylphenyl)-5-methyl-3-(2-methyl-6-oxo-1,6-dihydropyridin-3-yl)-2,3-dihydroquinazolin-4(1H)-one], for which the IC50 was at most 100 nM.
Regarding `Cc1cc(F)ccc1N1CN(c2ccc(=O)[nH]c2C)C(=O)c2ccc(Br)cc21` [Example 152, 7-bromo-1-(4-fluoro-2-methylphenyl)-3-(2-methyl-6-oxo-1,6-dihydropyridin-3-yl)-2,3-dihydroquinazolin-4(1H)-one], the IC50 is at most 100 nM.

Values taken from patent US20230103791A1 (GLAXOSMITHKLINE INTELLECTUAL PROPERTY DEVELOPMENT LIMITED, priority 2019, published 2023).
